Measured values: PubChem BioAssay AID2060606 (Molecular Pharmacology Branch, DTP, NCI, 2025)

Tested on: 922993-354-T-J3-PDC complex spheroids, viability, % test/control
Test: Anticancer human tumor 922993-354-T-J3-PDC patient-derived endometrial carcinoma cell line growth inhibition [CLK]
Conditions: for IC50: curve of first compound; for viability, T/C: stronger effect = lower value
Procedure, shortened: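 Multi-cell-type spheroids combined patient-derived tumor cells with HUVEC endothelial cells and human mesenchymal stem cells. Paired agents were dosed in half-log steps down from about clinical Cmax, or from 10 microM where Cmax was unknown.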

[1] = second compound 0.0316 µM, first compound 0.0316 µM
[2] = second compound 0.0316 µM, first compound 0.1 µM
[3] = second compound 0.0316 µM, first compound 0.316 µM
[4] = second compound 0.0316 µM, first compound 1 µM
[5] = second compound 0.0316 µM, first compound 3.16 µM
[6] = second compound 0.0316 µM, first compound 10 µM
[7] = second compound 0.1 µM, first compound 0.0316 µM
[8] = second compound 0.1 µM, first compound 0.1 µM
[9] = second compound 0.1 µM, first compound 0.316 µM
[10] = second compound 0.1 µM, first compound 1 µM
[11] = second compound 0.1 µM, first compound 3.16 µM
[12] = second compound 0.1 µM, first compound 10 µM
[13] = second compound 0.316 µM, first compound 0.0316 µM
[14] = second compound 0.316 µM, first compound 0.1 µM
[15] = second compound 0.316 µM, first compound 0.316 µM
[16] = second compound 0.316 µM, first compound 1 µM
[17] = second compound 0.316 µM, first compound 3.16 µM
[18] = second compound 0.316 µM, first compound 10 µM
[19] = second compound 1 µM, first compound 0.0316 µM
[20] = second compound 1 µM, first compound 0.1 µM
[21] = second compound 1 µM, first compound 0.316 µM
[22] = second compound 1 µM, first compound 1 µM
[23] = second compound 1 µM, first compound 3.16 µM
[24] = second compound 1 µM, first compound 10 µM
[25] = second compound 3.16 µM, first compound 0.0316 µM
[26] = second compound 3.16 µM, first compound 0.1 µM
[27] = second compound 3.16 µM, first compound 0.316 µM
[28] = second compound 3.16 µM, first compound 1 µM
[29] = second compound 3.16 µM, first compound 3.16 µM
[30] = second compound 3.16 µM, first compound 10 µM
[31] = second compound 10 µM, first compound 0.0316 µM
[32] = second compound 10 µM, first compound 0.1 µM
[33] = second compound 10 µM, first compound 0.316 µM
[34] = second compound 10 µM, first compound 1 µM
[35] = second compound 10 µM, first compound 3.16 µM
[36] = second compound 10 µM, first compound 10 µM
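Further: spheroids exposed to the agents for 7 days before readout.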

Compound `COc1ccc([C@@H](O)c2cc(-c3ncnc4cc(N5CCOCC5)ccc34)c(F)cc2Cl)nn1` + CN1CCN(c2cc(C(=O)Nc3cc4cc(-c5cnn(C)c5)ccc4cn3)ccn2)CC1 has an IC50 (second compound 0.0316 µM) of over 10000 nM, an IC50 (second compound 0.1 µM) of over 10000 nM and an IC50 (second compound 0.316 µM) of under 31.6 nM. For the same compound, the IC50 (second compound 1 µM) was under 31.6 nM, the IC50 (second compound 3.16 µM) was under 31.6 nM and the IC50 (second compound 10 µM) was under 31.6 nM. For the same compound, the viability, T/C [1] was 112%, the viability, T/C [2] was 131% and the viability, T/C [3] was 123%. For the same compound, the viability, T/C [4] was 122%, the viability, T/C [5] was 112% and the viability, T/C [6] was 85.4%. For the same compound, the viability, T/C [7] was 87.8%, the viability, T/C [8] was 87.7% and the viability, T/C [9] was 85.6%. The viability, T/C [10] was 91.5%, the viability, T/C [11] was 90.2% and the viability, T/C [12] was 76.1%. The viability, T/C [13] was 35.9%, the viability, T/C [14] was 33.1% and the viability, T/C [15] was 30.8%. The viability, T/C [16] was 25.4%, the viability, T/C [17] was 24.9% and the viability, T/C [18] was 24.7%. It also gave a viability, T/C [19] of 0.11%, a viability, T/C [20] of 0.13% and a viability, T/C [21] of 0.13%. For the same compound, the viability, T/C [22] was 0.11%, the viability, T/C [23] was 0.22% and the viability, T/C [24] was 1.37%. For the same compound, the viability, T/C [25] was 0.13%, the viability, T/C [26] was 0.14% and the viability, T/C [27] was 1.21%. For the same compound, the viability, T/C [28] was 1.06%, the viability, T/C [29] was 2.69% and the viability, T/C [30] was 1.48%. It also gave a viability, T/C [31] of 0.14%, a viability, T/C [32] of 2.05% and a viability, T/C [33] of 1.47%. The viability, T/C [34] was 0.25%, the viability, T/C [35] was 1.52% and the viability, T/C [36] was 2.52%.
`C=CC(=O)N1CCN(c2nc(=O)n(-c3c(C)ccnc3C(C)C)c3nc(-c4c(O)cccc4F)c(F)cc23)C(C)C1` (stereo not drawn) + CNC(=O)c1ccc(Nc2nc(OC3CCCC3)c3c(-c4ccc5nc(C)oc5c4)c[nH]c3n2)c(OC)c1 was tested, and the IC50 (second compound 0.0316 µM) was over 10000 nM, the IC50 (second compound 0.1 µM) was over 10000 nM and the IC50 (second compound 0.316 µM) was over 10000 nM. It also gave an IC50 (second compound 1 µM) of under 31.6 nM, an IC50 (second compound 3.16 µM) of under 31.6 nM and an IC50 (second compound 10 µM) of under 31.6 nM. For the same compound, the viability, T/C [1] was 106%, the viability, T/C [2] was 105% and the viability, T/C [3] was 102%. For the same compound, the viability, T/C [4] was 103%, the viability, T/C [5] was 106% and the viability, T/C [6] was 78.6%. For the same compound, the viability, T/C [7] was 86.2%, the viability, T/C [8] was 104% and the viability, T/C [9] was 101%. For the same compound, the viability, T/C [10] was 103%, the viability, T/C [11] was 103% and the viability, T/C [12] was 94.5%. For the same compound, the viability, T/C [13] was 66.9%, the viability, T/C [14] was 69% and the viability, T/C [15] was 64%. It also gave a viability, T/C [16] of 61.1%, a viability, T/C [17] of 69.3% and a viability, T/C [18] of 47.5%. The viability, T/C [19] was 33.8%, the viability, T/C [20] was 32.8% and the viability, T/C [21] was 34.6%. It also gave a viability, T/C [22] of 36.2%, a viability, T/C [23] of 41.4% and a viability, T/C [24] of 44.8%. For the same compound, the viability, T/C [25] was 34.3%, the viability, T/C [26] was 31.2% and the viability, T/C [27] was 30.6%. For the same compound, the viability, T/C [28] was 33.3%, the viability, T/C [29] was 36.4% and the viability, T/C [30] was 38.1%. For the same compound, the viability, T/C [31] was 27.6%, the viability, T/C [32] was 28.6% and the viability, T/C [33] was 31.9%. It also gave a viability, T/C [34] of 33%, a viability, T/C [35] of 34.1% and a viability, T/C [36] of 37.3%.
`CCCS(=O)(=O)Nc1ccc(F)c(C(=O)c2c[nH]c3ncc(-c4ccc(Cl)cc4)cc23)c1F` + CNC(=O)c1ccc(Nc2nc(OC3CCCC3)c3c(-c4ccc5nc(C)oc5c4)c[nH]c3n2)c(OC)c1 gave an IC50 (second compound 0.0316 µM) of over 10000 nM, an IC50 (second compound 0.1 µM) of over 10000 nM and an IC50 (second compound 0.316 µM) of 650 nM. It also gave an IC50 (second compound 1 µM) of under 31.6 nM, an IC50 (second compound 3.16 µM) of under 31.6 nM and an IC50 (second compound 10 µM) of under 31.6 nM. The viability, T/C [1] was 96.5%, the viability, T/C [2] was 93.9% and the viability, T/C [3] was 109%. The viability, T/C [4] was 103%, the viability, T/C [5] was 90.9% and the viability, T/C [6] was 74.4%. The viability, T/C [7] was 110%, the viability, T/C [8] was 103% and the viability, T/C [9] was 109%. The viability, T/C [10] was 113%, the viability, T/C [11] was 85.2% and the viability, T/C [12] was 67.6%. The viability, T/C [13] was 70.8%, the viability, T/C [14] was 73.4% and the viability, T/C [15] was 57.9%. For the same compound, the viability, T/C [16] was 46.5%, the viability, T/C [17] was 49.1% and the viability, T/C [18] was 40.2%. It also gave a viability, T/C [19] of 40.2%, a viability, T/C [20] of 32.9% and a viability, T/C [21] of 32.8%. For the same compound, the viability, T/C [22] was 35.4%, the viability, T/C [23] was 31.8% and the viability, T/C [24] was 24.3%. For the same compound, the viability, T/C [25] was 32%, the viability, T/C [26] was 31.3% and the viability, T/C [27] was 30.3%. For the same compound, the viability, T/C [28] was 30.2%, the viability, T/C [29] was 27.7% and the viability, T/C [30] was 24%. For the same compound, the viability, T/C [31] was 30.3%, the viability, T/C [32] was 31.7% and the viability, T/C [33] was 27.4%. The viability, T/C [34] was 29.6%, the viability, T/C [35] was 26.7% and the viability, T/C [36] was 23.1%.
`COC1C=CCC(C)C(C)S(=O)(=O)NC(=O)c2ccc3c(c2)N(CC2CCC21)CC1(CCCc2cc(Cl)ccc21)CO3` (stereo not drawn) + CNC(=O)c1ccc(Nc2nc(OC3CCCC3)c3c(-c4ccc5nc(C)oc5c4)c[nH]c3n2)c(OC)c1 gave an IC50 (second compound 0.0316 µM) of 6370 nM, an IC50 (second compound 0.1 µM) of 6790 nM and an IC50 (second compound 0.316 µM) of 2250 nM. For the same compound, the IC50 (second compound 1 µM) was under 31.6 nM, the IC50 (second compound 3.16 µM) was under 31.6 nM and the IC50 (second compound 10 µM) was under 31.6 nM. For the same compound, the viability, T/C [1] was 111%, the viability, T/C [2] was 117% and the viability, T/C [3] was 104%. For the same compound, the viability, T/C [4] was 98.9%, the viability, T/C [5] was 90.4% and the viability, T/C [6] was 25.6%. For the same compound, the viability, T/C [7] was 114%, the viability, T/C [8] was 99.6% and the viability, T/C [9] was 107%. For the same compound, the viability, T/C [10] was 105%, the viability, T/C [11] was 103% and the viability, T/C [12] was 23%. For the same compound, the viability, T/C [13] was 64.6%, the viability, T/C [14] was 70.2% and the viability, T/C [15] was 66.1%. The viability, T/C [16] was 57%, the viability, T/C [17] was 47.5% and the viability, T/C [18] was 17.9%. It also gave a viability, T/C [19] of 33.7%, a viability, T/C [20] of 39% and a viability, T/C [21] of 32.1%. It also gave a viability, T/C [22] of 27.7%, a viability, T/C [23] of 21.2% and a viability, T/C [24] of 11%. The viability, T/C [25] was 27.3%, the viability, T/C [26] was 30.2% and the viability, T/C [27] was 25.7%. The viability, T/C [28] was 20.8%, the viability, T/C [29] was 16.5% and the viability, T/C [30] was 9.29%. The viability, T/C [31] was 29.8%, the viability, T/C [32] was 25.2% and the viability, T/C [33] was 23.3%. The viability, T/C [34] was 17.3%, the viability, T/C [35] was 13.4% and the viability, T/C [36] was 10.7%.
